The text below walks through data of patent US12186332B2, “Methods for overcoming WNT/beta-catenin anti-cancer resistance in leukemia stem cells” (STOWERS INSTITUTE FOR MEDICAL RESEARCH, priority 2019, dated 2025).

Data set [1] deals with β-catenin binding of the Cd24a gene locus. As to the kind of experiment: ChIP-qPCR in Ctnnb1-3xFlag mouse ES cells. The data set is classed as cell-based. The following applies: 4 hours. Here is the method:
The Ctnnb1-3×Flag mouse ES cell line was provided by Andrew McMahon (University of Southern California) and routinely passaged and maintained on irradiated MEF feeder in conventional ES cell medium supplemented with […] and […] Hygromycin B. Cells were adapted and expanded to serum free 2i culture for experiments. For serum-free 2i culture, ES cells were cultured without serum in the N2B27 medium: neurobasal medium(Invitrogen 21103-049), DMEM/F12 (Invitrogen 10565-018), 0.5×N2 (Invitrogen 17502-048), 0.5×B27 (Invitrogen 17504044), 1×b-mercaptoethanol(Millipore ES-007-E), 2 mM Lglutamine(Invitrogen 25030081), […] non-essential amino acid(NEAA)(SCT 07600), 0.033% BSA(Invitrogen 15260037), […] CHIRON(Tocris 4423), […] PD03 (SCT72184).
A total of 2×10^7 ES cells were used per ChIP assay. Cells were washed with 1×PBS and crosslinked with 1% paraformaldehyde for 10 min at RT and quenched with 1 ml 2.5M glycine. Cells were washed with cold PBS three times and resuspended in […] lysis buffer (15 mM HEPES at pH 7.5, 140 mM NaCl, 1 mM EDTA, 0.5 mM EGTA, 1% Triton X100, 0.1% sodium deoxycholate, 1% SDS, 0.5% N-lauroylsarcosine). […] ChIP-qPCR was performed with Fast SYBR™ Green Master Mix (Thermo Fisher Scientific 4385612) and analyzed with the Student's t-test.

Data set [2] relates to blast cells, LSCs and HSPCs of leukemic Pten:β-cat^Act mice. It counts as in vivo. Here is the method:
Leukemic mice were treated with vehicle, chemotherapy, [Low]DXR (5×0.5 mg/kg), clinical DXR (1×20 mg/kg), or chemotherapy+[Low]DXR as described in FIG. S2.
Average frequency of each population (n≥6 per group) is shown.
Absolute number/femur±SD of each population (n≥6 per group) is shown.
At 10 days post-treatment, BM was analyzed by flow cytometry to determine frequency of blast cells. Average frequency±SD (n 6 per group). Note that this experiment used clinical dose (normal) or [Low]
Alternatively, a single injection on day 1 of 0.8 or 2.5 μg/g of DXR-loaded nanoparticles (NanoDXR) was given with and without chemotherapy. At 10 days post-treatment, BM was analyzed by flow cytometry to determine frequency of LSCs. Shown is average frequency±SD (n 6 per group).
Alternatively, a single injection on day 1 of 0.8 or 2.5 μg/g of DXR-loaded nanoparticles (NanoDXR) was given with and without chemotherapy. At 10 days post-treatment, BM was analyzed by flow cytometry to determine frequency of HSPCs. Shown is average frequency±SD (n 6 per group).
Whole bone marrow was isolated from uninduced HSC-SCL-Cre^+ Pten^fx/fx βcat^fx(Exon3)/+ (Pn:β-cat^Act) mice and combined with an equal portion of Cre negative bone marrow from a littermate and transplanted into irradiated (10 Grays) B6.SJL-Ptprc^a Pepc^b/BoyJ (Ptprc) recipients.
Chemotherapy for the animal model consisted of Nelarabine (Selleck) and Dexamethasone (BioVision) administered daily for 5 days consecutively. 43.4 mg/ml Nelarabine was administered intravenously via the tail vain according to the formula: Body Weight (g)×5=volume to inject (μl), which yielded 217 mg/kg. 2.5 mg/ml Dexamethasone was injected intraperitoneally according to the formula: Body Weight (g)×4=volume to inject (μl), yielding 10 mg/kg. […] [Low] NanoDXR treatment used doxorubicin nanoparticles (Tran et al. 2014) administered as a single IV injection once per week on day 1 relative to above treatments using 0.8 mg/kg. Maintenance [Low] NanoDXR consisted of once per week injections of 0.4 mg/kg. Groups combining Nelarabine with Doxorubicin used a single injection containing both drugs. All drugs were solubilized in 45% (2-Hydroxypropyl)-p-cyclodextrin (HBC) or 0.9% NaCl.
Cells were collected from bone marrow (femur and tibia), spleen, peripheral blood, and thymus. For cell surface phenotyping, a lineage cocktail (Lin) was used including CD3 (for HSPC but not LSC analysis), CD4, CD8, Mac-1, Gr, B220, IgM, and Ter119 (eBioscience, San Diego, CA). Monoclonal antibodies against CD3 (separate fluorophore for LSC analysis), Sca-1, c-Kit, CD45.1, and CD45.2 were also used where indicated. Cell sorting and analysis were performed using an inFlux (BD), MoFlo (Dako, Ft. Collins, CO) and/or CyAn ADP (Dako, Ft. Collins, CO). Data analysis was performed using FlowJo software (Ashland, OR).

Where [3] appears, read: BM FACS 5 days post-treatment, DXR as [Low]DXR 5×0.5 mg/kg, chemotherapy = Nelarabine+Dexamethasone 5 days.
Where [4] appears, read: clinical dose DXR 20 mg/kg alone.

Structures are written as SMILES. Read-outs that look alike come from different tables or passages of the source. Where only a bound is given, the exact number is not on record here.

With `COc1cccc2c1C(=O)c1c(O)c3c(c(O)c1C2=O)C[C@@](O)(C(=O)CO)C[C@@H]3O[C@H]1C[C@H](N)[C@H](O)[C@H](C)O1` [DXR, doxorubicin], the “β-catenin binding of the Cd24 promoter region” value in data set [1] (high-dose DXR (3 μM)) is given as “partially reversed”. Moreover, the “β-catenin binding of the Cd24 promoter region” value in data set [1] (low-dose DXR (30 nM)) is given as “essentially abolished”. Also, in data set [2] (setting [3]), the “effect on LSCs” value is “significantly reduced” and the “effect on blast cells” value was “no significant effect”. Besides, the “blast cell reduction when DXR substitutes for Nelarabine” value in data set [2] ([Low]DXR with Dexamethasone, 10 days post-treatment) is reported as “did not significantly reduce blast cells”. Further, in data set [2] (setting [4]), the “HSPC frequency versus vehicle alone” value is reported as “not significantly different”, the “increase of LSC frequency among surviving cells” value is recorded as 5 fold, the “increase of blast cell frequency among surviving cells” value is < 2 fold and the “toxicity in terms of absolute cell number” value is reported as “broadly toxic to all cells”. Moreover, the “blast cell reduction when DXR substitutes for Nelarabine” value in data set [2] (clinical equivalent dose DXR (5×4 mg/kg daily) with Dexamethasone, 10 days post-treatment) was “could substitute for a DNA-damaging agent in their reduction”. For the same compound, the “reduction of LSCs” value in data set [2] (free DXR, 5 doses of 0.15 μg/g, 10 days post-treatment) is given as “ineffective”.
